Results from publication PMC11981762 (Computational and Structural Biotechnology Journal, 2025).
Changes are numbered by the printed parent chain.

Key:
[1] = target: T1, human neuronal glycine receptor α1 (Homo sapiens, UniProt P23415); experiment: Two-electrode voltage clamp of glycine-evoked current; format: cell-based
T1 sequence (P23415 29-457): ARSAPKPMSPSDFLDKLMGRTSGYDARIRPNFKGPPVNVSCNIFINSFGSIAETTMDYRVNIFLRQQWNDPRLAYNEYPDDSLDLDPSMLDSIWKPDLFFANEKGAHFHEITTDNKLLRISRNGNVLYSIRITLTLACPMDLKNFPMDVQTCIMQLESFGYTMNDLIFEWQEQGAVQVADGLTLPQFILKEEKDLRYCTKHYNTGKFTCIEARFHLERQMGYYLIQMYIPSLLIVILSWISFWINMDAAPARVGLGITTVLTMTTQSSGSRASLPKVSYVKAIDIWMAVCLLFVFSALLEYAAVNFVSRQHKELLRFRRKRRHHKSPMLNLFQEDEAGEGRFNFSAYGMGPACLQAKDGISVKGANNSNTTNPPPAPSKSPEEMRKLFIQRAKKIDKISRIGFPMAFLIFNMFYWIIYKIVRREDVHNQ

[2] = target: T2, glycine receptor α1 F124A + D130A (Homo sapiens, UniProt P23415, D142A/F136A); format: cell-based; conditions: double mutant α1 F124A and D130A
T2 sequence (P23415 29-457 F136A/D142A): T1 sequence (P23415 29-457) with F108A, D114A

[3] = target: T3, 5-HT3a (Homo sapiens, UniProt P46098); experiment: Interaction with ligand-gated channel 5-HT3a
T3 sequence (P46098 24-478): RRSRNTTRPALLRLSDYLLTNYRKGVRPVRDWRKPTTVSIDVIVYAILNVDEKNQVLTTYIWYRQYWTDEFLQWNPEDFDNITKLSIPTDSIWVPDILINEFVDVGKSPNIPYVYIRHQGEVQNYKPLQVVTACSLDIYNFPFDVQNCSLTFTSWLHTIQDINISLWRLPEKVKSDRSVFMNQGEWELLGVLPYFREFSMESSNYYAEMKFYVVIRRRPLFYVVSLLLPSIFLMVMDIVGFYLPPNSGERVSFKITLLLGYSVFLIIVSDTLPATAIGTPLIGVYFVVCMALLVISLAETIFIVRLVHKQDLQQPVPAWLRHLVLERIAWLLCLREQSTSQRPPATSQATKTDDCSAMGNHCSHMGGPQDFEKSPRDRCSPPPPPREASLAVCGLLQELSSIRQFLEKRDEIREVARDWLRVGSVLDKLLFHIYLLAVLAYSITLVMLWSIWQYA

[4] = target: T4, glycine receptor α1 D130A (Homo sapiens, UniProt P23415, D142A); format: cell-based
T4 sequence (P23415 29-457 D142A): T1 sequence (P23415 29-457) with D114A

[5] = target: T5, glycine receptor α1 F124A (Homo sapiens, UniProt P23415, F136A); format: cell-based
T5 sequence (P23415 29-457 F136A): T1 sequence (P23415 29-457) with F108A

[6] = cited from earlier work
[7] = glycine concentration-response in presence of 10 µM EG
[8] = glycine concentration-response in presence of 100 µM EG

SMILES: CN1C[C@H](C(=O)N[C@]2(C)O[C@@]3(O)[C@@H]4CCCN4C(=O)[C@H](Cc4ccccc4)N3C2=O)C=C2c3cccc4[nH]cc(c34)C[C@H]21 [ergotamine]
- IC50 [1]: 5.7 ± 0.7 µM
- reversal potential ([1]; application of ergotamine and glycine or glycine alone, voltage ramp −100 to +60 mV): approximately 0 mV
- inhibition of IGly in voltage ramp ([1]; ergotamine 10 µM + 100 µM glycine, at +60 mV): 42.3 ± 6.2%
- inhibition of IGly in voltage ramp ([1]; ergotamine 10 µM + 100 µM glycine, at −100 mV): 39.9 ± 4.8%
- inhibition of IGly in voltage ramp ([1]; ergotamine 100 µM + 100 µM glycine, at +60 mV): 74.6 ± 5.4%
- inhibition of IGly in voltage ramp ([1]; ergotamine 100 µM + 100 µM glycine, at −100 mV): 71.9 ± 4.1%
- voltage dependence of inhibition (current-voltage relationship) ([1]; ergotamine 10 or 100 µM + 100 µM glycine, ramps −100 to +60 mV): voltage insensitive
- reversibility of inhibition of IGly ([1]; ergotamine and glycine co-application, washout): reversible
- relation between glycine and ergotamine (competition test) ([1]; glycine 0–100 µM with or without ergotamine 10 or 100 µM): non-competitive
- Imax (maximum response) of glycine-induced current [1, 7]: 53.9 ± 2.3
- nH (Hill's coefficient) of glycine-induced current [1, 7]: 1.2 ± 0.2
- Imax (maximum response) of glycine-induced current [1, 8]: 31.7 ± 0.5
- nH (Hill's coefficient) of glycine-induced current [1, 8]: 0.9 ± 0.2
- effect on desensitization ([1]; prolonged glycine application): did not alter desensitization kinetics or induce desensitization
- inhibition at 10 µM ([1]; read-out: inhibition of the current stimulated by 100 µM glycine): 59.8 ± 2.9%
- effect of ergotamine alone on IGly ([1]; various concentrations of ergotamine without glycine, holding potential −80 mV): no effect
- nH (Hill's coefficient) ([1]; α1 wild): 1.2 ± 0.2
- Imax (maximum response) of ergotamine inhibition of glycine-evoked current ([1]; α1 wild, 100 µM glycine, −80 mV): 91.5 ± 2.2
- Hill coefficient [2]: 1.9 ± 0.6
- interaction with 5-HT3a [3]: does not interact
- IC50 [4]: 28.1 ± 9.7 µM
- Imax (maximum response) of ergotamine inhibition of glycine-evoked current ([4]; α1 D130A): 32.1 ± 8.8
- nH (Hill's coefficient) ([4]; α1 D130A): 1.1 ± 0.3
- IC50 [5]: 25.7 ± 2.9 µM
- Imax (maximum response) of ergotamine inhibition of glycine-evoked current ([5]; α1 F124A): 42.4 ± 1.5
- nH (Hill's coefficient) ([5]; α1 F124A): 1.3 ± 0.1
- penetration across the blood-brain barrier [6]: relatively poor penetration

SMILES: NCC(=O)O [glycine]
- nH (Hill's coefficient) of glycine-induced current ([1]; Control, absence of ergotamine): 1.1 ± 0.3
- Imax (maximum response) of glycine-induced current ([1]; Control, absence of ergotamine, glycine 0.3 to 100 µM, −80 mV): 99.6 ± 2.4
